According to patent US12534452B2, “N-(1H-imidazol-2-yl)benzamide compound and pharmaceutical composition comprising the same as active ingredient” (KAINOS MEDICINE, INC., priority 2019, dated 2026):
pIC50: −log10 of the molar value.

molecular target: IRAK4 (Homo sapiens (Human), UniProt Q9NWZ3); test: In vitro IRAK4 phosphorylation activity assay; type: biochemical; conditions: [γ-33P]-ATP, myelin basic protein substrate, 40 minutes at room temperature; categories
Outline: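 Radiometric filter-binding assay, no compound–kinase preincubation; 8 mM MOPS pH 7.0, 0.2 mM EDTA, 10 mM Mg acetate, 0.33 mg/mL myelin basic protein substrate, [γ-33P]-ATP. Reaction 40 min at room temperature, stopped with phosphoric acid, scintillation counting; IC50 reported in categories.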

Sequence of IRAK4 (Q9NWZ3 whole entry): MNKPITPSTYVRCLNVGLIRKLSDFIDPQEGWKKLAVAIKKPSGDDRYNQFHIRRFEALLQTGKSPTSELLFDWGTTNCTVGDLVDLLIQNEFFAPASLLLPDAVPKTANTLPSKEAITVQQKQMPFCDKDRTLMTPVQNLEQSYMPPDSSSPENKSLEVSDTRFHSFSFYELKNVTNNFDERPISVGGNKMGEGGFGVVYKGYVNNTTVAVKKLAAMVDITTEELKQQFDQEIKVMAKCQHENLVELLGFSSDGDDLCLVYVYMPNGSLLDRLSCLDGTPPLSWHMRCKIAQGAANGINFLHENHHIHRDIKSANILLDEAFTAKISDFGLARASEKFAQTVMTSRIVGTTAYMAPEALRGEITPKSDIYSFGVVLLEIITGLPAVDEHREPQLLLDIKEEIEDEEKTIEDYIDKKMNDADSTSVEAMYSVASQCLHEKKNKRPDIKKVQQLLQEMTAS

SMILES | pIC50
C[C@H]1CCCN1C(=O)CCc1cn(-c2ccccc2)c(NC(=O)c2cccc(-c3cn[nH]c3)c2)n1 [Example 24, (S)—N-(4-(3-(2-methylpyrrolidin-1-yl)-3-oxopropyl)-1-phenyl-1H-imidazol-2-yl)-3-(1H-pyrazol-4-yl)benzamide] | > 7.30
O=C(Nc1nc(CCCCCCN2CCCCC2)cn1-c1ccccc1)c1cccc(-c2ccc3[nH]ccc3c2)c1 [Example 253, 3-(1H-indol-5-yl)-N-(1-phenyl-4-(6-(piperidin-1-yl)hexyl)-1H-imidazol-2-yl)benzamide] | 7.00 to 7.30
Cn1cc(-c2cccc(C(=O)Nc3nc(CCCC(=O)NCC4CCOC4)cn3-c3ccccc3)c2)cn1 (stereo not drawn) [Example 180, 3-(1-methyl-1H-pyrazol-4-yl)-N-(4-(4-oxo-4-(((tetrahydrofuran-3-yl)methyl)amino)butyl)-1-phenyl-1H-imidazol-2-yl)benzamide] | > 7.30
Cn1cc(-c2cccc(C(=O)Nc3nc(CCCCC(=O)NC4CCOCC4)cn3-c3ccccc3)c2)cn1 [Example 197, 3-(1-methyl-1H-pyrazol-4-yl)-N-(4-(5-oxo-5-((tetrahydro-2H-pyran-4-yl)amino)pentyl)-1-phenyl-1H-imidazol-2-yl)benzamide] | > 7.30
CCOC(C)(C)n1cc(-c2cccc(C(=O)Nc3nc(CCCC(=O)NC4CC4)cn3-c3ccccc3)c2)cn1 [Example 73, N-(4-(4-(cyclopropylamino)-4-oxobutyl)-1-phenyl-1H-imidazol-2-yl)-3-(1-(2-ethoxypropan-2-yl)-1H-pyrazol-4-yl)benzamide] | 7.00 to 7.30
CN(C)c1ccc(NC(=O)CCCc2cn(-c3ccccc3)c(NC(=O)c3cccc(-c4cnn(C)c4)c3)n2)cc1 [Example 155, N-(4-(4-((4-(dimethylamino)phenyl)amino)-4-oxobutyl)-1-phenyl-1H-imidazol-2-yl)-3-(1-methyl-1H-pyrazol-4-yl)benzamide] | > 7.30
O=C(CCCc1cn(-c2ccccc2)c(NC(=O)c2cccc(-c3cn[nH]c3)c2)n1)Nc1ccccc1F [Example 65, N-(4-(4-((2-fluorophenyl)amino)-4-oxobutyl)-1-phenyl-1H-imidazol-2-yl)-3-(1H-pyrazol-4-yl)benzamide] | > 7.30
O=C(CCCc1cn(-c2ccccc2)c(NC(=O)c2cccc(-c3cnn(C(F)F)c3)c2)n1)NC1CC1 [Example 235, N-(4-(4-(cyclopropylamino)-4-oxobutyl)-1-phenyl-1H-imidazol-2-yl)-3-(1-(difluoromethyl)-1H-pyrazol-4-yl)benzamide] | > 7.30
O=C(Nc1nc(CCCCCC(=O)N2CCCCC2)cn1-c1ccccc1)c1cccc(-c2ccc3[nH]nnc3c2)c1 [Example 242, 3-(1H-benzo[d][1,2,3]triazol-5-yl)-N-(4-(6-oxo-6-(piperidin-1-yl)hexyl)-1-phenyl-1H-imidazol-2-yl)benzamide] | > 7.30
O=C(CCCCc1cn(-c2ccccc2)c(NC(=O)c2cccc(-c3cn[nH]c3)c2)n1)NC1CC1 [Example 88, N-(4-(5-(cyclopropylamino)-5-oxopentyl)-1-phenyl-1H-imidazol-2-yl)-3-(1H-pyrazol-4-yl)benzamide] | > 7.30
CNC(=O)Cc1cn(-c2ccccc2)c(NC(=O)c2ccc(-c3cn[nH]c3)cc2)n1 [Example 48, N-(4-(2-(methylamino)-2-oxoethyl)-1-phenyl-1H-imidazol-2-yl)-4-(1H-pyrazol-4-yl)benzamide] | < 7.00
O=C(Nc1nc(CCCCCCO)cn1-c1ccccc1)c1cccc(-c2cn[nH]c2)c1 [Example 121, N-(4-(6-hydroxyhexyl)-1-phenyl-1H-imidazol-2-yl)-3-(1H-pyrazol-4-yl)benzamide] | > 7.30
CN1CCN(C(=O)CCCCCc2cn(-c3ccccc3)c(NC(=O)c3cccc(-c4ccc(N)nc4)c3)n2)CC1 [Example 272, 3-(6-aminopyridin-3-yl)-N-(4-(6-(4-methylpiperazin-1-yl)-6-oxohexyl)-1-phenyl-1H-imidazol-2-yl)benzamide] | > 7.30
O=C(O)Cc1cn(-c2ccccc2)c(NC(=O)c2cccc(-c3cn[nH]c3)c2)n1 [Example 43, 2-(2-(3-(1H-pyrazol-4-yl)benzamido)-1-phenyl-1H-imidazol-4-yl)acetic acid] | < 7.00
CNC(=O)Cc1cn(-c2ccccc2)c(NC(=O)c2cccc(-c3cn[nH]c3)c2)n1 [Example 41, N-(4-(2-(methylamino)-2-oxoethyl)-1-phenyl-1H-imidazol-2-yl)-3-(1H-pyrazol-4-yl)benzamide] | < 7.00
C[C@@H]1CCCCN1C(=O)CCCCCc1cn(-c2ccccc2)c(NC(=O)c2cccc(-c3cn[nH]c3)c2)n1 [Example 96, (R)—N-(4-(6-(2-methylpiperidin-1-yl)-6-oxohexyl)-1-phenyl-1H-imidazol-2-yl)-3-(1H-pyrazol-4-yl)benzamide] | > 7.30
CN1CCN(C(=O)CCCCCc2cn(-c3ccccc3)c(NC(=O)c3cccc(-c4ccc5scnc5c4)c3)n2)CC1 [Example 288, 3-(benzo[d]thiazol-5-yl)-N-(4-(6-(4-methylpiperazin-1-yl)-6-oxohexyl)-1-phenyl-1H-imidazol-2-yl)benzamide] | < 7.00

SMILES | pIC50
COC[C@@H]1CCCN1C(=O)CCCc1cn(-c2ccccc2)c(NC(=O)c2cccc(-c3cn[nH]c3)c2)n1 [Example 55, (S)—N-(4-(4-(2-(methoxymethyl)pyrrolidin-1-yl)-4-oxobutyl)-1-phenyl-1H-imidazol-2-yl)-3-(1H-pyrazol-4-yl)benzamide] | > 7.30
CCOC(C)n1cc(-c2cccc(C(=O)Nc3nc(CCCCCCN4CCCCC4)cn3-c3ccccc3)c2)cn1 (stereo not drawn) [Example 138, 3-(1-(1-ethoxyethyl)-1H-pyrazol-4-yl)-N-(1-phenyl-4-(6-(piperidin-1-yl)hexyl)-1H-imidazol-2-yl)benzamide] | 7.00 to 7.30
COC[C@@H]1CCCN1C(=O)CCc1cn(-c2ccccc2)c(NC(=O)c2cccc(-c3cn[nH]c3)c2)n1 [Example 19, (S)—N-(4-(3-(2-(methoxymethyl)pyrrolidin-1-yl)-3-oxopropyl)-1-phenyl-1H-imidazol-2-yl)-3-(1H-pyrazol-4-yl)benzamide] | 7.00 to 7.30
O=C(CCCCCc1cn(-c2ccccc2)c(NC(=O)c2cccc(-c3ccc4[nH]ncc4c3)c2)n1)NC1CC1 [Example 238, N-(4-(6-(cyclopropylamino)-6-oxohexyl)-1-phenyl-1H-imidazol-2-yl)-3-(1H-indazol-5-yl)benzamide] | > 7.30
Cn1cc(-c2cccc(C(=O)Nc3nc(CCCC(=O)N4CCCC[C@@H]4C(F)(F)F)cn3-c3ccccc3)c2)cn1 [Example 176, (R)-3-(1-methyl-1H-pyrazol-4-yl)-N-(4-(4-oxo-4-(2-(trifluoromethyl)piperidin-1-yl)butyl)-1-phenyl-1H-imidazol-2-yl)benzamide] | > 7.30
O=C(CCc1cn(-c2ccccc2)c(NC(=O)c2cccc(-c3c[nH]nc3C(F)(F)F)c2)n1)Nc1ccccc1 [Example 3, N-(4-(3-oxo-3-(phenylamino)propyl)-1-phenyl-1H-imidazol-2-yl)-3-(3-(trifluoromethyl)-1H-pyrazol-4-yl)benzamide] | < 7.00
Cn1cc(-c2cccc(C(=O)Nc3nc(CCCC(=O)N4CCCC(F)(F)C4)cn3-c3ccccc3)c2)cn1 [Example 175, N-(4-(4-(3,3-difluoropiperidin-1-yl)-4-oxobutyl)-1-phenyl-1H-imidazol-2-yl)-3-(1-methyl-1H-pyrazol-4-yl)benzamide] | > 7.30
O=C(Nc1nc(CCCCCCN2CCCCC2)cn1-c1ccccc1)c1cccc(-c2cccnc2)c1 [Example 270, N-(1-phenyl-4-(6-(piperidin-1-yl)hexyl)-1H-imidazol-2-yl)-3-(pyridin-3-yl)benzamide] | > 7.30
Cn1cc(-c2cccc(C(=O)Nc3nc(CCCC(=O)N4CCC(N5CCCC5)CC4)cn3-c3ccccc3)c2)cn1 [Example 154, 3-(1-methyl-1H-pyrazol-4-yl)-N-(4-(4-oxo-4-(4-(pyrrolidin-1-yl)piperidin-1-yl)butyl)-1-phenyl-1H-imidazol-2-yl)benzamide] | > 7.30
Cn1cc(-c2cccc(C(=O)Nc3nc(CCCCCC(=O)N4CCCCC4)cn3-c3ccccc3)c2)cn1 [Example 200, 3-(1-methyl-1H-pyrazol-4-yl)-N-(4-(6-oxo-6-(piperidin-1-yl)hexyl)-1-phenyl-1H-imidazol-2-yl)benzamide] | > 7.30
O=C(Nc1nc(CCCCCCN2CCOCC2)cn1-c1ccccc1)c1cccc(-c2cn[nH]c2)c1 [Example 123, N-(4-(6-morpholinohexyl)-1-phenyl-1H-imidazol-2-yl)-3-(1H-pyrazol-4-yl)benzamide] | > 7.30
C[C@H]1CCCCN1C(=O)CCCCc1cn(-c2ccccc2)c(NC(=O)c2cccc(-c3cn[nH]c3)c2)n1 [Example 82, (S)—N-(4-(5-(2-methylpiperidin-1-yl)-5-oxopentyl)-1-phenyl-1H-imidazol-2-yl)-3-(1H-pyrazol-4-yl)benzamide] | 7.00 to 7.30
O=C(Nc1nc(CCCCN2CCSCC2)cn1-c1ccccc1)c1cccc(-c2cn[nH]c2)c1 [Example 115, N-(1-phenyl-4-(4-thiomorpholinobutyl)-1H-imidazol-2-yl)-3-(1H-pyrazol-4-yl)benzamide] | > 7.30
COC(=O)CCCCCc1cn(-c2ccccc2)c(NC(=O)c2cccc(-c3cn[nH]c3)c2)n1 [Example 91, methyl 6-(2-(3-(1H-pyrazol-4-yl)benzamido)-1-phenyl-1H-imidazol-4-yl)hexanoate] | > 7.30
CN(C)C1CCN(C(=O)CCCc2cn(-c3ccccc3)c(NC(=O)c3cccc(-c4ccc5scnc5c4)c3)n2)CC1 [Example 282, 3-(benzo[d]thiazol-5-yl)-N-(4-(4-(4-(dimethylamino)piperidin-1-yl)-4-oxobutyl)-1-phenyl-1H-imidazol-2-yl)benzamide] | < 7.00
COC1CCN(C(=O)CCCc2cn(-c3ccccc3)c(NC(=O)c3cccc(-c4cnn(C)c4)c3)n2)CC1 [Example 177, N-(4-(4-(4-methoxypiperidin-1-yl)-4-oxobutyl)-1-phenyl-1H-imidazol-2-yl)-3-(1-methyl-1H-pyrazol-4-yl)benzamide] | > 7.30
